Data from the supplement of paper PMC10307832.

What was measured:
Assay in all cases: relative viability (nuclei count vs DMSO), 5 days (fraction); higher = more cells survive
NCI-H1734 = tested on: NCI-H1734
How it was run: (§1)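 Relative viability was taken as the ratio of nuclei in treated wells to nuclei in vehicle wells. Lung cancer cell lines in 1536-well plates received compounds by pin tool one day after seeding, either one drug alone or a fixed anchor-drug dose plus five library-drug doses (not always all listed) in √10 steps. Nuclei were counted on 4× images after 5 days of treatment, and values are medians of duplicate plates.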

NCI-H2405 = tested on: NCI-H2405
How it was run: as §1

NCI-H322M = tested on: NCI-H322M
How it was run: as §1

H3255 = tested on: H3255
How it was run: as §1

NCI-H2170 = tested on: NCI-H2170
How it was run: as §1

UMC-11 = tested on: UMC-11
How it was run: as §1

SW 900 = tested on: SW 900
How it was run: as §1

NCI-H1793 = tested on: NCI-H1793
How it was run: as §1

PC-14 = tested on: PC-14
How it was run: as §1

NCI-H647 = tested on: NCI-H647
How it was run: as §1

NCI-H1563 = tested on: NCI-H1563
How it was run: as §1

NCI-H2023 = tested on: NCI-H2023
How it was run: as §1

COR-L23 = tested on: COR-L23
How it was run: as §1

NCI-H441 = tested on: NCI-H441
How it was run: as §1

HCC-15 = tested on: HCC-15
How it was run: as §1

LOU-NH91 = tested on: LOU-NH91
How it was run: as §1

201T = tested on: 201T
How it was run: as §1

NCI-H1650 = tested on: NCI-H1650
How it was run: as §1

NCI-H3122 = tested on: NCI-H3122
How it was run: as §1

NCI-H520 = tested on: NCI-H520
How it was run: as §1

NCI-H2347 = tested on: NCI-H2347
How it was run: as §1

EPLC-272H = tested on: EPLC-272H
How it was run: as §1

O=c1cc(-c2cccc3c2Sc2ccccc2S3)oc(N2CCOCC2)c1 + COc1cc2c(Oc3ccc(NC(=O)C4(C(=O)Nc5ccc(F)cc5)CC4)cc3F)ccnc2cc1OCCCN1CCOCC1 [Foretinib] (partner 0.25 µM)
relative viability (NCI-H1734; first compound 0.08 µM): 0.788 | relative viability (NCI-H1734; first compound 0.253 µM): 1.04 | relative viability (NCI-H1734; first compound 0.8 µM): 0.99 | relative viability (NCI-H1734; first compound 8 µM): 0.94 | relative viability (NCI-H2405; first compound 0.08 µM): 0.998 | relative viability (NCI-H2405; first compound 0.253 µM): 1.09 | relative viability (NCI-H2405; first compound 0.8 µM): 0.975 | relative viability (NCI-H2405; first compound 2.53 µM): 0.938 | relative viability (NCI-H2405; first compound 8 µM): 1.04 | relative viability (NCI-H322M; first compound 0.08 µM): 0.896 | relative viability (NCI-H322M; first compound 0.253 µM): 1 | relative viability (NCI-H322M; first compound 0.8 µM): 0.885 | relative viability (NCI-H322M; first compound 2.53 µM): 0.858 | relative viability (NCI-H322M; first compound 8 µM): 0.972 | relative viability (H3255; first compound 0.08 µM): 0.758 | relative viability (H3255; first compound 0.253 µM): 0.821 | relative viability (H3255; first compound 0.8 µM): 0.87 | relative viability (H3255; first compound 2.53 µM): 0.738 | relative viability (H3255; first compound 8 µM): 0.925 | relative viability (NCI-H2170; first compound 0.08 µM): 1.03 | relative viability (NCI-H2170; first compound 0.253 µM): 1.05 | relative viability (NCI-H2170; first compound 0.8 µM): 1.08 | relative viability (NCI-H2170; first compound 2.53 µM): 0.999 | relative viability (NCI-H2170; first compound 8 µM): 0.983 | relative viability (UMC-11; first compound 0.08 µM): 1.04 | relative viability (UMC-11; first compound 0.253 µM): 1.03 | relative viability (UMC-11; first compound 0.8 µM): 1.19 | relative viability (UMC-11; first compound 2.53 µM): 1.03 | relative viability (UMC-11; first compound 8 µM): 1.31 | relative viability (SW 900; first compound 0.08 µM): 0.772 | relative viability (SW 900; first compound 0.253 µM): 1.27 | relative viability (SW 900; first compound 0.8 µM): 1.05 | relative viability (SW 900; first compound 2.53 µM): 0.723 | relative viability (SW 900; first compound 8 µM): 0.648 | relative viability (NCI-H1793; first compound 0.08 µM): 0.681 | relative viability (NCI-H1793; first compound 0.253 µM): 0.826 | relative viability (NCI-H1793; first compound 0.8 µM): 0.562 | relative viability (NCI-H1793; first compound 2.53 µM): 0.595 | relative viability (NCI-H1793; first compound 8 µM): 0.588 | relative viability (PC-14; first compound 0.08 µM): 0.95 | relative viability (PC-14; first compound 0.253 µM): 1.29 | relative viability (PC-14; first compound 0.8 µM): 0.924 | relative viability (PC-14; first compound 2.53 µM): 0.961 | relative viability (PC-14; first compound 8 µM): 0.966 | relative viability (NCI-H647; first compound 0.08 µM): 1.15 | relative viability (NCI-H647; first compound 0.253 µM): 1.35 | relative viability (NCI-H647; first compound 0.8 µM): 1.25 | relative viability (NCI-H647; first compound 2.53 µM): 1.21 | relative viability (NCI-H647; first compound 8 µM): 1.29 | relative viability (NCI-H1563; first compound 0.08 µM): 0.922 | relative viability (NCI-H1563; first compound 0.253 µM): 0.895 | relative viability (NCI-H1563; first compound 0.8 µM): 0.868 | relative viability (NCI-H1563; first compound 2.53 µM): 0.89 | relative viability (NCI-H1563; first compound 8 µM): 0.91 | relative viability (NCI-H2023; first compound 0.08 µM): 0.688 | relative viability (NCI-H2023; first compound 0.253 µM): 0.889 | relative viability (NCI-H2023; first compound 0.8 µM): 0.965 | relative viability (NCI-H2023; first compound 8 µM): 0.861 | relative viability (COR-L23; first compound 0.08 µM): 0.946 | relative viability (COR-L23; first compound 0.253 µM): 1.11 | relative viability (COR-L23; first compound 0.8 µM): 1.1 | relative viability (COR-L23; first compound 2.53 µM): 0.971 | relative viability (COR-L23; first compound 8 µM): 1.17 | relative viability (NCI-H441; first compound 0.08 µM): 0.512 | relative viability (NCI-H441; first compound 0.253 µM): 1.09 | relative viability (NCI-H441; first compound 0.8 µM): 1.35 | relative viability (NCI-H441; first compound 2.53 µM): 0.882 | relative viability (NCI-H441; first compound 8 µM): 0.98 | relative viability (HCC-15; first compound 0.08 µM): 1.01 | relative viability (HCC-15; first compound 0.253 µM): 1.14 | relative viability (HCC-15; first compound 0.8 µM): 1 | relative viability (HCC-15; first compound 2.53 µM): 1.08 | relative viability (HCC-15; first compound 8 µM): 1.11 | relative viability (LOU-NH91; first compound 0.08 µM): 0.976 | relative viability (LOU-NH91; first compound 0.253 µM): 0.906 | relative viability (LOU-NH91; first compound 0.8 µM): 0.833 | relative viability (LOU-NH91; first compound 2.53 µM): 0.838 | relative viability (LOU-NH91; first compound 8 µM): 0.967 | relative viability (201T; first compound 0.08 µM): 1.14 | relative viability (201T; first compound 0.253 µM): 1.08 | relative viability (201T; first compound 0.8 µM): 0.787 | relative viability (201T; first compound 2.53 µM): 1.06 | relative viability (201T; first compound 8 µM): 1.01 | relative viability (NCI-H1650; first compound 0.08 µM): 1.35 | relative viability (NCI-H1650; first compound 0.253 µM): 1.04 | relative viability (NCI-H1650; first compound 0.8 µM): 0.998 | relative viability (NCI-H1650; first compound 2.53 µM): 0.902 | relative viability (NCI-H1650; first compound 8 µM): 1.19 | relative viability (NCI-H3122; first compound 0.08 µM): 0.789 | relative viability (NCI-H3122; first compound 0.253 µM): 1.01 | relative viability (NCI-H3122; first compound 0.8 µM): 1.02 | relative viability (NCI-H3122; first compound 2.53 µM): 0.986 | relative viability (NCI-H3122; first compound 8 µM): 1.01 | relative viability (NCI-H520; first compound 0.08 µM): 0.786 | relative viability (NCI-H520; first compound 0.253 µM): 0.885 | relative viability (NCI-H520; first compound 0.8 µM): 0.835 | relative viability (NCI-H520; first compound 2.53 µM): 0.779 | relative viability (NCI-H520; first compound 8 µM): 0.985 | relative viability (NCI-H2347; first compound 0.08 µM): 0.903 | relative viability (NCI-H2347; first compound 0.253 µM): 0.841 | relative viability (NCI-H2347; first compound 0.8 µM): 0.682 | relative viability (NCI-H2347; first compound 2.53 µM): 0.679 | relative viability (NCI-H2347; first compound 8 µM): 0.892 | relative viability (EPLC-272H; first compound 0.08 µM): 0.6 | relative viability (EPLC-272H; first compound 0.253 µM): 0.624 | relative viability (EPLC-272H; first compound 0.8 µM): 0.897 | relative viability (EPLC-272H; first compound 2.53 µM): 0.675 | relative viability (EPLC-272H; first compound 8 µM): 0.572
